Experimental data published in patent publication US10350271B2, “Lipidated peptides for lowering blood glucose” (USTAV ORGANICKE CHEMIE A BIOCHEMIE AKADEMIE VED CR, V.V.I., priority 2014, dated 2019).

Tests used:
diabetic db/db mice = assay: IPGTT after 14 days administration to diabetic db/db mice; assay type: in vivo; conditions: 5 mg/kg SC twice a day for 14 days, vs saline
Protocol: Then, mice were fasted overnight and IPGTT was performed. After initial blood glucose measurement, 2 g/kg glucose solution was administered IP and glucose followed every hour for 7 hours. Glucose level is shown at the end of the experiment (420 min).
Db/db male mice and their respective controls were acclimatized after arrival, housed 2-3 mice per cage, and used in the experiment at age 11-12 weeks. Mice had free access to food and water, and were subjected to a 14-day experiment. […] The body weight of the mice was followed simultaneously. Following 14 days of treatment, mice were fasted overnight and IPGTT was performed. After initial blood glucose measurement, 2 g/kg glucose solution was administered IP, and glucose levels were measured every hour for 7 hours.

rat PrRP receptor = target: T1, rat PrRP receptor (Rattus norvegicus, UniProt Q64121); assay: Competitive binding in RC-4B/C rat pituitary cells (125I-rat PrRP31)
T1 construct: host or cells: RC-4B/C rat pituitary cell line
T1 sequence (Q64121 1-370): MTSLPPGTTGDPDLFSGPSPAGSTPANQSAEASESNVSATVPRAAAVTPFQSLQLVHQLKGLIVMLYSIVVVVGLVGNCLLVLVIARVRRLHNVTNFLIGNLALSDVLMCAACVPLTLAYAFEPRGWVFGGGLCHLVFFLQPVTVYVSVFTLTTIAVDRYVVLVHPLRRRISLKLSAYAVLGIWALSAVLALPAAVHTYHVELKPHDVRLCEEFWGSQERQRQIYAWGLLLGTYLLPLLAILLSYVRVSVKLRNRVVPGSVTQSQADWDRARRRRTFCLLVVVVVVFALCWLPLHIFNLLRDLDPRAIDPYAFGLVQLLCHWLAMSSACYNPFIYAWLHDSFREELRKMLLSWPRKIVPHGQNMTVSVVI
Outline: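 Intact rat pituitary RC-4B/C cells incubated 60 min at room temperature with […] rat 125I-PrRP31 and unlabeled analog (10^−11 to 10^−4 mol·l^−1) in HEPES pH 7.4 buffer. Cell-bound radioactivity γ-counted after NaOH lysis; one-site competition fit.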

[1] = target: T2, human PrRP receptor GPR10 (Homo sapiens, UniProt P49683); assay: Competitive binding in CHO cells transfected with human GPR10 (human 125I-PrRP31)
T2 construct: host or cells: CHO cells
T2 sequence (P49683 1-370): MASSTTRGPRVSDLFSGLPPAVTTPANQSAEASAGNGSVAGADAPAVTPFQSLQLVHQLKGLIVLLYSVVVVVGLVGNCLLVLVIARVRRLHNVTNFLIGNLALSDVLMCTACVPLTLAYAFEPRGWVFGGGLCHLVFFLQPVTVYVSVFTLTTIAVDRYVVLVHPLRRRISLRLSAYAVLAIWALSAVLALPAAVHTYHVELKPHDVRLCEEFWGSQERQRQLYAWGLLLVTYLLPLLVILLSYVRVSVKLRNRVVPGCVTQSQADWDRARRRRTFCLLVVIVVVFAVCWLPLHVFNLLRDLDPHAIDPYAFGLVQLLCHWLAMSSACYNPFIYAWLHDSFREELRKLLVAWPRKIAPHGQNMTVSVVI
Outline: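 GPR10-transfected CHO cells (40-80 thousand/well) incubated 60 min at room temperature with 5×10^-11 mol·l^-1 human 125I-PrRP31 and unlabeled analog at 10^-11 to 10^-4 mol·l^-1 in Tris binding buffer pH 7.4. Cells solubilized in 0.1 mol/l NaOH, γ-counted; one-site nonlinear regression fit.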

C57BL/6 mice = assay: Food intake in fasted mice after SC injection; assay type: in vivo; conditions: 5 mg/kg SC, 45 min after injection
Outline: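 Overnight-fasted animals (food removed 17 h before dosing, water available) in individual cages got saline, PrRP or lipidated PrRP analogs SC at 1-10 mg/kg.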

Structure (SMILES): CCCCCCCCCCCCCCCC(=O)N[C@@H](CO)C(=O)N[C@@H](CCCNC(=N)N)C(=O)N[C@H](C(=O)N[C@@H](Cc1c[nH]cn1)C(=O)N[C@@H](CCCNC(=N)N)C(=O)N[C@@H](Cc1c[nH]cn1)C(=O)N[C@@H](CO)C(=O)N[C@@H](CCSC)C(=O)N[C@@H](CCC(=O)O)C(=O)N[C@H](C(=O)N[C@@H](CCCNC(=N)N)C(=O)N[C@H](C(=O)N1CCC[C@H]1C(=O)N[C@@H](CC(=O)O)C(=O)N[C@H](C(=O)N[C@@H](CC(N)=O)C(=O)N1CCC[C@H]1C(=O)N[C@@H](C)C(=O)N[C@@H](Cc1c[nH]c2ccccc12)C(=O)N[C@@H](Cc1ccc(O)cc1)C(=O)N[C@@H](C)C(=O)N[C@@H](CO)C(=O)N[C@@H](CCCNC(=N)N)C(=O)NCC(=O)N[C@H](C(=O)N[C@@H](CCCNC(=N)N)C(=O)N1CCC[C@H]1C(=O)N[C@H](C(=O)NCC(=O)N[C@@H](CCCNC(=N)N)C(=O)N[C@@H](Cc1ccccc1)C(N)=O)C(C)C)[C@@H](C)CC)[C@@H](C)CC)[C@@H](C)O)[C@@H](C)CC)[C@@H](C)O [Analog 43]
- IPGTT glucose level at end of experiment (420 min) (diabetic db/db mice): significantly lower
- Ki (rat PrRP receptor): 950 ± 350 pM
- Displacement of rat 125I-PrRP binding (rat PrRP receptor; RC-4B/C cells, rat PrRP receptor): nmol·l^−1 range
- % of PrRP31, RC-4B/C rat pituitary cells (rat PrRP receptor; affinity relative to PrRP31): 519%
- % of PrRP31, GPR10 human receptor transfected in CHO cells ([1]; affinity relative to PrRP31): 90%
- Displacement of human 125I-PrRP binding ([1]; human GPR10 receptor): nmol·l^−1 range
- Food intake in mice % of saline-treated group (C57BL/6 mice): 30%
